# Measured values taken from patent publication US9266897B2, “Derivatives of protoberberine biological alkaloids and use of same inhibiting ulcerative colitis” (Institute of Materia Medica, Chinese Academy of Medical …, priority 2011, dated 2016).
# Entries after “also recorded” stand apart in the source; their conditions may differ. Marks after values point to notes of the source that are not given here.
# What was measured:
# [1] = tested on: C57/blc mice with DSS-induced UC; assay: DSS-induced acute UC in C57/blc mice; assay type: in vivo; conditions: for colon histopathology (inflammatory lesion): HE×200
# Description: (§1) (1) Method: In vivo test was carried out according to the literature: Y. Yoshioka, H. Akiyama, M. Nakano, T. Shoji, T. Kanda, Y. Ohtake, T. Takita, R. Matsuda, T. Maitani. Orally administered apple procyanidins protect against experimental inflammatory bowel disease in mice, international immunopharmacology, 2008, 1802-1807.
# DAI is evaluated by weight loss, shape of stool, hematochezia, and other indicators; macroscopic score of colon tissue is evaluated by intestinal mucosal hyperemia, edema of intestinal wall, ulcer size, and other indicators. The lower the DAI and macroscopic score is, the more close to the physiological state of the normal animal. In Table 3: **p<0.01 when compared with the normal control group; ##p<0.01 when compared with the model group.
# [2] = tested on: SD rats with acetic acid-induced UC; assay: Acetic acid-induced acute UC in SD rats; assay type: in vivo
# Description: as §1
# Disease activity index (DAI) is evaluated by weight loss, shape of stool, hematochezia, and other indicators; macroscopic score of colon tissue is evaluated by intestinal mucosal hyperemia, edema of intestinal wall, ulcer size, and other indicators. The lower the DAI and macroscopic score is, the more close to the normal physiological state. In Table 1: **p<0.01 when compared with the normal control group; ##p<0.01 when compared with the model group.
# xbp1 upstream promoter = assay: Transcriptional activation of pGL3-pxbp1 (dual luciferase reporter gene) in IEC-6 cells; assay type: cell-based; conditions: Rattus norvegicus, IEC-6 cells transfected with pGL3-pxbp1, 36 h-48 h, read-out: EC50 of transcriptional activation effect on xbp1 gene
# Description: (§2) (1) Method: IEC-6 cells in the period of vigorous growth were seed in 48 well plate at a density of 5×10^4 to disperse the cells uniform and then it was placed in a humidifying cell incubator filled with 5% CO2 at 37° C. to incubate. Plasmid transfection (0.6 μg/well) was carried out when the cells confluencing up to 70%-80%. After 4 h, each compound of 1×10^−5 mol/L was added into these wells (n=3), respectively, and incubated for another 36 h-48 h together with existing transfected cells. Luciferase activity detection on test samples was proceeded using dual luciferase report gene detection kit (Promega, USA).
# as §2, with “logarithmic phase” for “vigorous growth”, “different concentrations” for “each compound”, “compounds 1, 2, 7, and 10 were” for “1×10^−5 mol/L was”, “added” for “added into these wells”
# [3] = Table 5, 300 mg/kg, model 3.39 ± 0.64
# [4] = Table 5, 300 mg/kg, model 5.69 ± 1.12
# [5] = Table 7, 300 mg/kg, model 3.85 ± 0.34
# [6] = Table 7, 300 mg/kg, model 5.59 ± 1.01
structure (smiles),measurement,setting,value
"O=C(O)c1cc(/N=N/c2ccc(S(=O)(=O)Nc3ccccn3)cc2)ccc1O [SASP, reference compound]",disease activity index (DAI) inhibitory rate in UC model,[1]; 300 mg/kg,32%
same,Body weight (g) x ± SD end,"[1]; Table 2, 300 mg/kg",20.09 ± 0.9 g
same,DAI,"[1]; Table 3, 300 mg/kg, model 3.33 ± 0.54",2.27 ± 0.43##
same,macroscopic score of colon tissue,"[1]; Table 3, 300 mg/kg, model 5.54 ± 1.23",3.24 ± 0.77##
same,Body weight (g) x ± SD end,"[1]; Table 4, 300 mg/kg",21.15 ± 0.6 g
same,DAI,[1]; [3],2.54 ± 0.23##
same,macroscopic score of colon tissue,[1]; [4],2.95 ± 0.52##
same,Body weight (g) x ± SD end,"[1]; Table 6, 300 mg/kg",25.09 ± 0.9 g
same,DAI,[1]; [5],2.27 ± 0.43##
same,macroscopic score of colon tissue,[1]; [6],3.24 ± 0.77##
same,colon histopathology (inflammatory lesion),[1]; positive drug SASP group,improvement of visible colitis lesions and partial recovery of structure of each layer
"CC(=O)CC1c2c(ccc3c2OCO3)C=C2c3cc4c(cc3CCN21)OCO4 (racemic) [Compound 7, (±)-8-acetonyldihydrocoptisine]",macroscopic and histopathological results of colon tissue,[2]; 300 mg/kg,good therapeutic effect on UC
same,body weight change value compared with before administration (decreased by),"[2]; 300 mg/kg, model group decreased by 19.2%",10%
same,macroscopic score,"[2]; Table 1, 300 mg/kg",2.05 ± 0.45##
same,DAI,"[2]; Table 1, 300 mg/kg, model 3.15 ± 0.45",1.15 ± 0.22##
same,EC50,xbp1 upstream promoter,221 nM
same,disease activity index (DAI) inhibitory rate in UC model,[1]; 500 mg/kg,64%
same,colon histopathology (inflammatory lesion),[1]; HD group 500 mg/kg,significant improvement on the colon inflammatory lesion; also recorded: the lesion of inflammatory bowel diseases is more significantly improved
same,colon histopathology (inflammatory lesion),[1]; LD group 125 mg/kg,the inflammatory lesions of colon tissue also has a partial remission
same,colon histopathology (inflammatory lesion),[1]; MD group 250 mg/kg,the inflammatory lesions of colon tissue also has a partial remission
same,Body weight (g) x ± SD end,"[1]; Table 2, HD 500 mg/kg",21.57 ± 1.5 g
same,Body weight (g) x ± SD end,"[1]; Table 2, MD 250 mg/kg",20.54 ± 2.1 g
same,DAI,"[1]; Table 3, HD 500 mg/kg, model 3.33 ± 0.54",1.33 ± 0.31##
same,macroscopic score of colon tissue,"[1]; Table 3, HD 500 mg/kg, model 5.54 ± 1.23",2.05 ± 0.28##
same,DAI,"[1]; Table 3, LD 125 mg/kg, model 3.33 ± 0.54",3.01 ± 0.38
same,macroscopic score of colon tissue,"[1]; Table 3, LD 125 mg/kg, model 5.54 ± 1.23",4.93 ± 0.61
same,DAI,"[1]; Table 3, MD 250 mg/kg, model 3.33 ± 0.54",2.01 ± 0.27##
same,macroscopic score of colon tissue,"[1]; Table 3, MD 250 mg/kg, model 5.54 ± 1.23",3.30 ± 0.66##
C=C(C(=O)CC)c1c2c(OC)c(OC)ccc2c(C)c2[n+]1CCc1cc3c(cc1-2)OCO3 [Compound 10],EC50,xbp1 upstream promoter,47.3 nM
"C1=C2c3cc4c(cc3CCN2Cc2cc3c(cc21)OCO3)OCO4 [Compound 2, dihydropseudocoptisine]",EC50,xbp1 upstream promoter,7.06 nM
same,disease activity index (DAI) inhibitory rate in UC model,[1]; 300 mg/kg,80%
same,Body weight (g) x ± SD end,"[1]; Table 6, 300 mg/kg",26.17 ± 1.5 g
same,DAI,[1]; [5],1.05 ± 0.26##
same,macroscopic score of colon tissue,[1]; [6],2.94 ± 0.21##
"C1=C2c3cc4c(cc3CCN2Cc2c1ccc1c2OCO1)OCO4 [Compound 1, dihydrocoptisine]",EC50,xbp1 upstream promoter,2.29 nM
same,disease activity index (DAI) inhibitory rate in UC model,[1]; 300 mg/kg,69%
same,Body weight (g) x ± SD end,"[1]; Table 4, HD 500 mg/kg",19.87 ± 1.0 g
same,Body weight (g) x ± SD end,"[1]; Table 4, LD 75 mg/kg",21.15 ± 1.1 g
same,Body weight (g) x ± SD end,"[1]; Table 4, MD 250 mg/kg",19.95 ± 1.6 g
same,DAI,[1]; [3],2.33 ± 0.11##
same,macroscopic score of colon tissue,[1]; [4],2.66 ± 0.46##
same,DAI,"[1]; Table 5, LD 75 mg/kg, model 3.39 ± 0.64",2.99 ± 0.14#
same,macroscopic score of colon tissue,"[1]; Table 5, LD 75 mg/kg, model 5.69 ± 1.12",4.93 ± 0.61
same,DAI,"[1]; Table 5, MD 150 mg/kg, model 3.39 ± 0.64",1.81 ± 0.27##
same,macroscopic score of colon tissue,"[1]; Table 5, MD 150 mg/kg, model 5.69 ± 1.12",2.01 ± 0.16##
